Each structure is given as a SMILES string. Read-outs that look alike come from different tables or passages of the source.

The target in one assay is T1, hSERT (Homo sapiens, UniProt P31645).
T1 construct: expressed in transfected cells; host or cells: HEK293
In words: Inhibition of [125I]RTI-55 binding to hSERT in HEK293 cell membranes. The method, then:
(§1) Unknowns are weighed and dissolved in DMSO to make a 10 mM stock solution. An initial dilution to 50 μM in assay buffer for binding, or to 1 mM in water for uptake, is made. Subsequent dilutions are made with assay buffer supplemented with DMSO, maintaining a final concentration of 0.1% DMSO. Pipetting is conducted using a Biomek 2000 robotic workstation.
(§2) Inhibition of Radioligand Binding of [125I]RTI-55 to hDAT, hSERT or hNET in Colonla Cells
(§3) Cell preparation: HEK293 cells expressing hDAT, hSERT or hNET inserts are grown to 80% confluence on 150 mm diameter tissue culture dishes and serve as the tissue source. Cell membranes are prepared as follows. Medium is poured off the plate, and the plate is washed with 10 ml of calcium- and magnesium-free phospate-buffered saline. Lysis buffer (10 ml; 2 mM HEPES with 1 mm EDTA) is added. After 10 min, cells are scraped from plates, poured into centrifuge tubes, and centrifuged […] for 20 min. The supernatant fluid is removed, and the pellet is resuspended in 12-32 ml of 0.32 m sucrose using a Ploytron at setting 7 for 10 sec. The resuspension volume depends on the density of binding sites within a cell line and is chosen to reflect binding of 10% or less to the total radioactivity.
(§4) Assay conditions: Each assay tube contains 50 μl of membrane preparation (about 10-15 μg of protein), 25 μl of unknown compound used to define non-specific binding, or buffer(Krebs-HEPES, pH 7.4;122 mM NaCl, 2.5 mM CaCl2, 1.2 mM MgSO4, 10 μM pargyline, 100 μM tropolone,0.2% glucose and 0.2% ascorbic acid, buffered with 25 mM HEPES) […] of [125I]RTI-55 (40-80 pM final concentration) and additional buffer sufficient to bring up the final volume to 250 μl. Membranes are preincubated with unknowns for 10 min prior to the addition of [125I]RTI-55. The assay tubes are incubated to 25° C. for 90 min. Binding is terminated by filtration over GF/F filters using Tomtec 96-well cell harvester. Fliter are washed for six seconds with ice cold saline. Scintillation fluid is added to each square and radioactivity remaining on the filter is determined using Wallac μ- or beta plate reader. Specific binding is defined as the difference in binding observed in the presence and absence of 5 μM mazindol (HEK-hDAT and HEK-hNET) or […] imipramine (HEK-hSERT). Two or three independent competition experiments are conducted with duplicate determinations. GraphPAD Prism is used to analyze the ensuing data, with IC50 values converted to Ki values using the Cheng-Prusoff equation (Ki=IC50/(1+([125I]RTI-55/KdRTI55))).

In a further assay the target is T2, hDAT (Homo sapiens, UniProt Q01959).
T2 construct: expressed in transfected cells; host or cells: HEK293
Kind of assay: Inhibition of [125I]RTI-55 binding to hDAT in HEK293 cell membranes. The conditions noted are these: [125I]RTI-55 displacement, HEK-hDAT membranes; IC50 converted to Ki (Cheng-Prusoff); read-out: Transporter DAT. The procedure:
as §1, §2, §3, §4

Another assay concerns the target T3, hNET (Homo sapiens, UniProt P23975).
T3 construct: expressed in transfected cells; host or cells: HEK293
Kind of assay: Inhibition of [125I]RTI-55 binding to hNET in HEK293 cell membranes. The conditions noted are these: [125I]RTI-55 displacement, HEK-hNET membranes; IC50 converted to Ki (Cheng-Prusoff); read-out: Transporter NET. The procedure: as §1, §2, §3, §4

[1] abbreviates: [125I]RTI-55 displacement, HEK-hSERT membranes, IC50 converted to Ki (Cheng-Prusoff), read-out: Transporter SERT.

T3 sequence (P23975 whole entry): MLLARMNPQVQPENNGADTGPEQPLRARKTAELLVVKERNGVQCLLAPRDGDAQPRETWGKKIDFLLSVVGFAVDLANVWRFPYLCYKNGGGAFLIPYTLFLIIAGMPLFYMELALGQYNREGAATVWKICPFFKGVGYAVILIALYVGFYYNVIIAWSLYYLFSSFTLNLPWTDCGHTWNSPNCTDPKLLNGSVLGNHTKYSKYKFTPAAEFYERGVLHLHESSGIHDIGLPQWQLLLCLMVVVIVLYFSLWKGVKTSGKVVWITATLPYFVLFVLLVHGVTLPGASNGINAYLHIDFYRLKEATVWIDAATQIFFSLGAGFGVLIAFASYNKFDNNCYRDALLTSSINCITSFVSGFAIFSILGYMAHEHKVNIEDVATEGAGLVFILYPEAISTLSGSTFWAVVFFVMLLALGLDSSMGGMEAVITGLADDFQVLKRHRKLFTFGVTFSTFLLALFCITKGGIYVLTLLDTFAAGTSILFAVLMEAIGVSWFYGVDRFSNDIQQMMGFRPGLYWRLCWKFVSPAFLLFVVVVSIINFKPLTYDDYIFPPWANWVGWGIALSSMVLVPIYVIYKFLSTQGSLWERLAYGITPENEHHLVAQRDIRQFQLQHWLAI
T2 sequence (Q01959 whole entry): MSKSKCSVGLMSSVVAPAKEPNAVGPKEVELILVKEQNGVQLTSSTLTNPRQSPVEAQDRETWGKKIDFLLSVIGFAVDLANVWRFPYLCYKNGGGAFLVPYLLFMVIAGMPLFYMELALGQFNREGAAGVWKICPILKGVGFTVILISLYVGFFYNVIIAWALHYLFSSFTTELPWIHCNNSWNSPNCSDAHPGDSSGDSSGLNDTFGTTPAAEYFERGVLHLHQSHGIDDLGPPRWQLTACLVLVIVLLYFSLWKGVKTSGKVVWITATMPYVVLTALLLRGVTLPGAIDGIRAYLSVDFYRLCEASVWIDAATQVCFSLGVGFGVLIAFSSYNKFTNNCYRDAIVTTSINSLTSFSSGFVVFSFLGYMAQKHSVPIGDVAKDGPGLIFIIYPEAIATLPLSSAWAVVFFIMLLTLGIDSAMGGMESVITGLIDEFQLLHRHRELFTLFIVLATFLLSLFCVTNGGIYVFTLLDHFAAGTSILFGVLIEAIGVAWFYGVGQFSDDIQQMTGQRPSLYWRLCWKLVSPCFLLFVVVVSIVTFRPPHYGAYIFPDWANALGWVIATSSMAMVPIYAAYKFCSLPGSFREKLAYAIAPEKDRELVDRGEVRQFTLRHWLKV
T1 sequence (P31645 whole entry): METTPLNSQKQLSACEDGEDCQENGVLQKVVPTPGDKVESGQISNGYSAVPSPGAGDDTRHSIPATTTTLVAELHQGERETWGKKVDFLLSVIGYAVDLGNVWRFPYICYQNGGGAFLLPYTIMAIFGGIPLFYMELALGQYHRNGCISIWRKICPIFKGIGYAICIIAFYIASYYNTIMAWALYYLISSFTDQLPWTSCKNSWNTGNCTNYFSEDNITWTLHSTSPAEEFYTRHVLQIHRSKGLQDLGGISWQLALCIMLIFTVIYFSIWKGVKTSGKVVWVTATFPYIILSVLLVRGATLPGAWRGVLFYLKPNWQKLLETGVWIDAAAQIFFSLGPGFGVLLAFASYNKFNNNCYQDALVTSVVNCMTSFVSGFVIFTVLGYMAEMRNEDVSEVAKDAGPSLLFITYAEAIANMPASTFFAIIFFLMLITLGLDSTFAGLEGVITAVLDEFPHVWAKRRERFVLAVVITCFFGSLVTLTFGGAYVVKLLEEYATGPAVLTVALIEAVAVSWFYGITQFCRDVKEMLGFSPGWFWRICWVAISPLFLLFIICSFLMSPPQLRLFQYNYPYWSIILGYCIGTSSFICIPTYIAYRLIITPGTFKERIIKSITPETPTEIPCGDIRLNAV

Consider `CNC[C@]1(c2ccccc2)C[C@H]1c1ccc2ccccc2c1` [compound 32698], for which the values for the Ki on hSERT, at hDAT and on hNET were 0.014 µM, 1.6 µM and 1.27 µM, respectively.
Take `CNC[C@@]1(c2ccc(Cl)c(Cl)c2)C[C@@H]1c1ccccc1` [32,221]: the Ki at hSERT (setting [1]) was determined as 1.04 µM; on hDAT it was 1.38 µM; at hNET, 3.13 µM.
On to `CNC[C@]1(c2ccccc2)C[C@H]1c1ccc(Cl)c(Cl)c1` [32,220], for which the results for the Ki at hSERT, on hDAT and on hNET were 0.045 µM, 1.45 µM and 1.46 µM, respectively.
Regarding `CNC[C@]1(c2ccc(Cl)c(Cl)c2)C[C@H]1c1ccccc1` [32,222], the Ki on hSERT (setting [1]) is 4.6 µM; on hDAT it was 6.6 µM; on hNET it was > 10 µM.
Regarding `CNC[C@@]1(c2ccccc2)C[C@@H]1c1ccccc1` [compound 32697], the Ki on hSERT (setting [1]) is > 10 µM; on hDAT, > 5.3 µM; on hNET, 3.9 µM.
`CNC[C@@]1(c2ccc(Cl)c(Cl)c2)C[C@@H]1c1ccc(Cl)c(Cl)c1` [compound 32695]: the values for the Ki on hSERT (setting [1]), on hDAT and at hNET were 0.172 µM, 0.73 µM and 2.9 µM, respectively.
The corresponding values for `CNC[C@]1(c2ccc(Cl)c(Cl)c2)C[C@H]1c1ccc(Cl)c(Cl)c1` [compound 32694] are 1.53 µM, 1.26 µM and 3.7 µM.
In the case of `CNC[C@@]1(c2ccccc2)C[C@@H]1c1ccc(Cl)c(Cl)c1` [32,219], the Ki was 0.114 µM at hSERT (setting [1]), 0.218 µM on hDAT and 1.87 µM at hNET.
The corresponding values for `CNC[C@]1(c2ccccc2)C[C@H]1c1ccccc1` [compound 32696] are > 7.3 µM, 4.65 µM and 4.3 µM.

For the origin of these results see US7501453B2, “Cyclopropanes with central nervous system activity” (The Research Foundation of State University of New York, priority 2006, dated 2009).
